Results: patent US20250092360A1, “METHODS AND COMPOSITIONS FOR GENERATING SOMATOSTATIN+ INTERNEURONS FROM HUMAN FOREBRAIN NEURAL PROGENITOR CELLS” (Trailhead Biosystems Inc., priority 2023, published 2025)
“And” between values parts separate entries of the source, which are not always exact repeats. Identical values can stand only once. “Also recorded” adds a separate entry of the source.

Columns and labels:
[1] = system: forebrain-committed neural stem cells; assay: HD-DoE stage 2, 12-factor experiment: NKX2-1 expression; type: cell-based, human; conditions: model / dynamic profile, in words
Experimental: To further guide the differentiation of forebrain-committed neural stem cells to ventral forebrain neural stem cells at stage 2, a HD-DoE experiment was performed for 3 days after termination of stage 1 treatment. […] This 12-factor experiment included LDN193189, BMP7, PD0325901, MK2206, A8301, XAV939, CHIR99021, Purmorphamine, SANT-1, AGN193109, TTNPB and GSI-XX. […]

[2] = system: stage 2 neural stem cells; assay: HD-DoE stage 3 experiment: ASCL1, LHX6, DLX1 expression; type: cell-based, human; conditions: for factor contribution, expression of ASCL1: positive, model optimized for maximum ASCL1 at 1700
Experimental: To further guide the cells to medial ganglionic eminence progenitor fate, an additional HD-DoE experiment was performed for 3 days on cells that were treated with stage 1 and stage 2 media for total of 6 days prior to start of the experiment. This experiment included 13 effectors, LDN193189, A8301, GNF5837, AZD3147, GSI-XX, Takinib, PD0325901, PD173074, BLU9931, IGF-1, MHY1485, Purmorphamine and Prostratin. In this model, we focused on maximum expression of genes expressed in neuronal progenitor cells in medial ganglionic eminence (MGE) region including ASCL1, LHX6 and DLX1 (Silberberg et al. (2016) Neuron 92:59-74). When the model was optimized for maximum expression of ASCL1 at 1700, A8301, GSI-XX, Purmorphamine and Takinib, which is an inhibitor of TAK1 pathway, had the highest factor contributions, 18.1, 14.1, 12.7 and 10.1 respectively. […] MHY 1485 also had positive contribution however the factor was below 2 (FIG. 9).
Therefore, six effectors including A8301, GSI-XX, Takinib, GNF5837, IGF-1 and Purmorphamine were finalized as ingredients of stage 3 differentiation media. A representative recipe for Stage 3 differentiation is summarized below in Table 3.

[3] = system: medial ganglionic eminence (MGE)-derived neural progenitors; assay: HD-DoE stage 4, 12-factor experiment: SOX6 expression; type: cell-based, human; conditions: for impact on expression of SOX6: dynamic profile, in words; for factor contribution, expression of SOX6: positive impact, model optimized for maximal SOX6 at 1442
Excerpt: These effectors are small chemical compounds or proteins. They are commonly used during the differentiation of stem cells to specific cell linage. The choice of the effectors was based on the current literature on forebrain neural induction and differentiation of neural progenitor cells to mature neurons.
To evaluate the effectors on SST differentiation, experiments with 8 or 12 factors were designed to assess the responses of cells to 48 or more combinations of effectors in a range of concentrations. To analyze the models, we focused on expression of genes involved in development and patterning of the forebrain interneurons maturation including LHX6 (Liodis et al. (2007) J. Neurosci. 27:3078-3089; Yuan et al. (2018) Elife 7: e37382), SOX6 (Azim et al. (2009) Nature Neurosci. 12:1238-1247; Batista-Brito et al. (2009) Neuron 63:466-481), DLX5 (de Lombares et al. (2019) Aging (Albany NY) 11:6638; Wang et al. (2010) J. Neurosci. 30:5334-5345) and ASCL1 (Barretto et al. (2020) J. Neurosci. Meth. 334:108548; Shi et al. (2016) J. Biol. Chem. 291:13560-13570). At later stages we focused on interneuron maturation genes including somatostatin and absence of Parvalbumin (Horn and Nicoll (2018) Proc. Natl. Acad. Sci. 115:589-594). The impacts of each effector on gene expression level are defined by a parameter called factor contribution that is calculated for each effector during the modeling.
To identify the recipe for differentiation at stage 4, at least 48 different combinations of effectors were robotically prepared by the Design-of-Experiments compression through D-optimality. The effector combinations were prepared in a basal media and were subsequently added to the cells, which were then allowed to differentiate. Three days later, RNA extraction was performed, and gene expression levels were examined using quantitative PCR analysis. The data was normalized and modeled using partial least squares regression analysis to the effector design, resulting in the generation of gene-specific models, which after model tuning for maximal predictive power, provided explanation of the effectors ability to control the expression of individual genes, combinatorically, and individually. Solutions within the tested space could then be explored to address desirability.
IGF-1 activates the IGF-1 pathway, promotes neuron axonal growth, and establishes the synapse of interneurons. GDNF is the […] and can activate the GDNF pathway. MK2206 is an AKT inhibitor and can inhibit cell proliferation and promote neuronal maturation. PD173074 and BLU-554 are FGFR inhibitors. The FGF pathway is required for the maintenance of neural progenitor cells. Inhibition of the FGFR pathway promotes neural maturation. GSI-XX is a notch pathway inhibitor. Notch pathway inhibits neural progenitor cell differentiation. Inhibition of the Notch pathway promotes neural differentiation.
To find the set of factors that have the potential to optimize SOX6 in this experiment, a new assessment was done through dynamic profile analysis with focus on maximal expression of SOX6.

[4] = system: stage 2 neural stem cells; assay: Factor criticality analysis, stage 3 recipe; type: cell-based, human; conditions: other five stage 3 factors present; for expression level of DLX1 when the factor is removed: 220 with all six factors; for expression level of LHX6 when the factor is removed: 240 with all six factors; for expression level of ASCL1 when the factor is removed: 1650 with all six factors
Experimental: To assess the impact of the elimination of each validated factor, dynamic profile analysis was used and compared the expression level of genes of interest in absence of each finalized factor while others are present.
In the stage 3 recipe, each of the six finalized factors were removed while the other five factors remained present and the expression levels of ASCL1, DLX1 and LHX6 were assessed compared to the presence of all six factors. […] As expected, in the absence of IGF-1, the value of DLX1 increases to 410, however, ASCL1 and LHX6 decreased to 1390 and 220, respectively.

[5] = system: medial ganglionic eminence (MGE)-derived neural progenitors; assay: Factor criticality analysis, stage 4 recipe; type: cell-based, human; conditions: FIG. 27, in words
Experimental: To assess the impact of elimination of each validated factor, dynamic profile analysis was again used to compare the expression levels of genes of interest in the absence of each finalized factor while the others were present in the media.
In the stage 4 recipe, each of the five finalized factors was removed while the other four factors remained present in the media and the expression level of forebrain genes was assessed compared to the presence of all 6 factors. SOX6 expression was reported to determine the cortical interneuron-precursors cell fate (see e.g., Azim et al. (2009) Nature Neurosci. 12:1238-1247; Batista-Brito et al. (2009) Neuron 63:466-481). Therefore, optimization of SOX6 expression was focused on at this stage.

[6] = system: human pluripotent stem cells; assay: HD-DoE stage 1, additional experiment: FEZF2 expression; type: cell-based
Experimental: To identify the recipe for stage 1 of differentiation, 96 different combinations of effectors generated using Design-of-Experiments compression through D-optimality were robotically prepared. The effector combinations were prepared in a basal media and were subsequently added to the cells, which were then allowed to differentiate. Three days later RNA extraction was performed, and gene expression was obtained using quantitative PCR analysis. The data were normalized and modeled using partial least squares regression analysis to the effector design, resulting in the generation of gene-specific models, which after model tuning for maximal Q2 predictive power, provided explanation of the effectors ability to control the expression of individual genes, combinatorically, and individually. Solutions within the tested space could then be explored to address desirability. To further enhance the conditions for forebrain differentiation from pluripotency, an additional HD-DoE experiment was performed. Additional gene regulatory models were obtained that were used for preparation of the differentiation protocol. The factors in this experiment included LDN193189, PD173074, BLU9931, Purmorphamine, SC79, MK2206, ZM336372, PD0325901, CHIR99021, XAV939, UCLA-GP130, Tofacitinib and GO6983. […] Dynamic profile analysis was also used to assess the interaction between the effectors.

[7] = system: forebrain-committed neural progenitor cells; assay: HD-DoE stage 5, 8-factor experiment (JQ1, Indolactam-V ...): Somatostatin expression; type: cell-based, human
Experimental: To further guide the differentiation of forebrain-committed neural progenitor cells to somatostatin interneuron cells at stage 5, HD-DoE experiments were performed for 3 days after termination of stage 4 treatment. At this time, we focused on maximum expression of SST that was expressed in Somatostatin (+) interneurons and minimum expression of Parvalbumin that is another type of interneurons. This 8-factor experiment included JQ1, (−)-Indolactam-V, Oleic acid, BDNF, IGF-1, 2-phospho-L-Ascorbic acid, Albumax, MK2206. When the model was maximized for expression of Somatostatin, six effectors were identified that could increase its expression levels, including (−)-Indolactam-V, Oleic acid, BDNF, 2-phospho-L-ascorbic acid, Albumax, and MK2206, as shown in FIG. 21. Using dynamic profile analysis, the results of which are shown in FIG. 22, the model was modified to achieve the maximum expression level of Somatostatin and therefore (−)-Indolactam-V, BDNF, and 2-phospho-L-ascorbic acid were included while JQ-1, Oleic acid, Albumax and MK2206 were excluded. Considering the model at different optimization settings for maximum differentiation of cells toward ventral forebrain, the recipe for stage 5 of differentiation included (−)-Indolactam-V, BDNF, IGF-1, and 2-phospho-L-ascorbic acid from this HD-Doe experiment.

[8] = system: human pluripotent stem cells; assay: Factor criticality analysis, stage 1 recipe (dynamic profile analysis); type: cell-based; conditions: 3500 with all factors; FIG. 12
Excerpt: To assess the impact of the elimination of each validated factor, dynamic profile analysis was used and compared the expression level of genes of interest in absence of each finalized factor while others are present. […] When Purmorphamine was removed, levels of FEZF2 and SIX3 were decreased to 1000 and below 3000, while levels of OTX2 increased to 6500.

[9] = system: forebrain-committed neural progenitor cells; assay: HD-DoE stage 5, 8-factor experiment (GDNF, BDNF, NT-3 ...): Somatostatin expression; type: cell-based, human; conditions: FIG. 24 dynamic profile, in words
Experimental: To investigate the effects of other factors on differentiation of forebrain-committed neural progenitor cells to Somatostatin interneuron cells, an additional HD-DoE experiment was performed for 3 days on cells that were treated with stage 1 to stage 4 medium for a total of 12 days prior to the new experiment. This experiment, the results of which are shown in FIG. 23, included eight effectors, GDNF, BDNF, NT-3, ß-NGF, Linoleic acid, 5-Cholesten-3β, LIF and TGF-β3. In this model, we focused on maximum expression of Somatostatin gene expressed in Somatostatin (+) interneurons (Urban-Ciecko and Barth (2016) Nature Reviews Neurosci. 17:401-409). When the model was optimized for maximum expression of Somatostatin, BDNF, NT-3, beta-NGF and Linoleic acid had the highest factor contributions, 25.7, 2, 19.9, 23.5, respectively.
Therefore, the latter were excluded in the recipe.

C[C@H](NC(=O)Cc1cc(F)cc(F)c1)C(=O)N[C@@H]1C(=O)N(C)c2ccccc2-c2ccccc21 [GSI-XX]
impact on expression of NKX2-1 [1]: increase
impact on expression of ASCL1 ([2]; dynamic profile, in words): Positive impact
impact on expression of LHX6 ([2]; dynamic profile, in words): Positive impact
factor contribution, expression of ASCL1 [2]: 14.1 and 14
impact on expression of SOX6 [3]: positive impact
factor contribution, expression of SOX6 [3]: 3.6
expression level of DLX1 when the factor is removed [4]: 50
expression level of LHX6 when the factor is removed [4]: 140
expression level of ASCL1 when the factor is removed [4]: 1200
effect on PVALB expression [5]: minimal effect
effect on SOX6 expression [5]: increase
effect on Somatostatin expression [5]: contribute

NC1(c2ccc(-c3nc4ccn5c(=O)[nH]nc5c4cc3-c3ccccc3)cc2)CCC1 [MK2206]
impact on expression of FEZF2 ([6]; dynamic profile, in words): positive impact
factor contribution, expression of FEZF2 ([6]; positive impact, additional stage 1 experiment optimized for FEZF2): 11 and 12.2
impact on expression of NKX2-1 [1]: increase
impact on expression of SOX6 [3]: positive impact
factor contribution, expression of SOX6 [3]: 7.2
impact on expression of Somatostatin ([7]; FIG. 21/22, in words): increase; also recorded: positive impact
factor contribution, expression of Somatostatin ([7]; positive, 8-factor experiment of FIG. 21): 4.2
expression level of FEZF2 when the factor is removed [8]: 2700
effect on PVALB expression [5]: decrease
effect on SOX6 expression [5]: increase

IGF-1: Growth factor; activates the IGF-1 pathway
impact on expression of ASCL1 ([2]; dynamic profile, in words): positive effect
impact on expression of DLX1 ([2]; dynamic profile, in words): negative impact
impact on expression of LHX6 ([2]; dynamic profile, in words): positive effect
factor contribution, expression of ASCL1 [2]: 7
impact on expression of SOX6 [3]: positive impact
factor contribution, expression of SOX6 [3]: 2.9
expression level of DLX1 when the factor is removed [4]: 410
expression level of LHX6 when the factor is removed [4]: 220
expression level of ASCL1 when the factor is removed [4]: 1390
effect on SOX6 expression [5]: increase

B1: GDNF: Glial cell line-derived neurotrophic factor; can activate the GDNF pathway (protein, UniProt P39905 78-211, looked up)
Glial cell line-derived …: SPDKQMAVLPRRERNRQAAAANPENSRGKGRRGQRGKNRGCVLTAIHLNVTDLGLGYETKEELIFRYCSGSCDAAETTYDKILKNLSRNRRLVSDKVGQACCRPIAFDDDLSFLDDNLVYHILRKHSAKRCGCI
impact on expression of SOX6 [3]: positive impact
factor contribution, expression of SOX6 [3]: 21
impact on expression of Somatostatin [9]: negative impact
effect on SOX6 expression [5]: increase
